# Experimental data: patent publication US9096585B2 (Icahn School of Medicine at Mount Sinai, priority 2010, dated 2015)
# “Also recorded” adds a separate entry of the source. Like-named read-outs stand apart in the source and are kept apart here.
# How the values were obtained:
# [1] = tested on: A549 cells; details: human, 24 h
# [2] = in vitro; details: human
# [3] = tested on: influenza A/WSN/33 virus; assay: Plaque-reduction assays with influenza A/WSN/33 virus in cell lines of different species, with or without pyrimidine supplements
# [4] = tested on: influenza virus polymerase (PB1, PB2, PA, NP); type: cell-based, influenza A/WSN/33 virus; details: for inhibition of viral RNA polymerase activity: mini-genome reporter construct
# [5] = tested on: VSV; type: cell-based, Vesicular Stomatitis virus; details: viral entry assays
# [6] = tested on: retrovirus MLV; assay: Viral entry assay, retrovirus MLV; type: cell-based; details: viral entry assays
# [7] = tested on: A549 cells; assay: Cell viability (cytotoxicity) in A549 cells; details: A549
# [8] = tested on: influenza virus; assay: Viral entry assay, influenza virus; type: cell-based; details: viral entry assays
# [9] = tested on: human adenovirus 5 (hAd5); type: cell-based; details: 10 μM A3 or less
# [10] = in vitro; details: human; remark: listed apart in the source
# [11] = tested on: influenza A/PR/8/34 virus v-, c-, and mRNA (NA segment); details: concentration of 2 μM
# [12] = tested on: Hepatitis C virus; type: cell-based; details: 10 μM A3 or less
# [13] = Cell viability (cytotoxicity) in A549 cells; details: human, A549 cells
# [14] = tested on: Sindbis virus; assay: Sindbis virus replication in A549 cells; type: cell-based; details: 10 μM A3 or less
# [15] = tested on: Vesicular Stomatitis virus; type: cell-based; details: A549
# [16] = tested on: Sendai Virus 52; assay: Sendai virus replication in A549 cells; type: cell-based; details: A3 10 μM, 24 h
# [17] = tested on: HIV-1 (NL4-3); assay: microbe, parasite or virus in culture; type: cell-based
# [18] = tested on: influenza virus; type: cell-based; details: primary screen
# [19] = tested on: influenza viral proteins (NP, M1, and M2); type: cell-based, influenza A/WSN/33 virus; details: A549; A/WSN/33; in the presence of A3
# [20] = tested on: Vaccinia Virus (NYVAC); type: cell-based; details: 10 μM A3 or less
# [21] = tested on: cellular gene expression (Renilla luciferase)
# [22] = molecular target: Human dihydroorotate dehydrogenase (DHODH) (Homo sapiens, UniProt Q02127); assay: In vitro colorimetric DHODH assay (DCIP reduction); details: final concentration of 10 μM; 60 mins
# Human dihydroorotate dehydrogenase (DHODH), sequence (Q02127 whole entry): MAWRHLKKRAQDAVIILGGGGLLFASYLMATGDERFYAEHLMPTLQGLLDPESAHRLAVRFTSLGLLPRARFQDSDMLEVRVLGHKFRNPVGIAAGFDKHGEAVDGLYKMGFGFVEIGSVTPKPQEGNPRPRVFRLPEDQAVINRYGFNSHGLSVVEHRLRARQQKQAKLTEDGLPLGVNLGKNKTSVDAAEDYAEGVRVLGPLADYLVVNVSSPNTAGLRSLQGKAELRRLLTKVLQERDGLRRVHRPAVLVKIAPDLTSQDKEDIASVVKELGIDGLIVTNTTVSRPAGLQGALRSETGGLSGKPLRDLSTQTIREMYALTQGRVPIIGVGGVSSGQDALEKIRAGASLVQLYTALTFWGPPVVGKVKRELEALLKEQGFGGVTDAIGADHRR
# [23] = tested on: cellular 5S rRNA; details: concentration of 2 μM
# [24] = in vitro; details: mouse
# [25] = tested on: Newcastle Disease virus; type: cell-based; details: concentration of 11.2 μM; NDV/B1; A549
# [26] = read-out: CC50 (A549), 24 hour period, Table 3
smiles,measurement,setting,value
"Cc1[nH]c2ccc(-c3nnc(SCC(=O)N(C(C)C)C(C)C)o3)cc2c1C [Compound A3-4, 2-(5-(2,3-dimethyl-1H-indol-5-yl)-1,3,4-oxadiazol-2-ylthio)-N,N-diisopropylacetamide]",CC10 (A549),[1],10.7 µM
CN(C)c1nc(-c2ccc(Br)cc2)cs1 [Compound A35-5],CC50 at 24 h,[2],242 µM
same,CC10 (A549),[1],17.8 µM
"CCN(CC)C(=O)CSc1nnc(-c2ccc3[nH]c(C)c(C)c3c2)o1 [Compound A3-2, 2-(5-(2,3-dimethyl-1H-indol-5-yl)-1,3,4-oxadiazol-2-ylthio)-N,N-diethylacetamide]",CC10 (A549),[1],29 µM
"Cc1oncc1C(=O)Nc1ccc(C(F)(F)F)cc1 [Leflunomide, reference compound]",effect on influenza virus replication,"[3]; A549 and MDCK cells, concentration of 10 μM",No inhibition
"NC(=O)c1ncn([C@@H]2O[C@H](CO)[C@@H](O)[C@H]2O)n1 [ribavirin, reference compound]",inhibition of viral RNA polymerase activity,[4]; at 100 μM,90%
"O=C(CSc1nnc(-c2cccnc2)o1)N1CCCC1 [Compound A3-11, 2-(5-(pyridin-3-yl)-1,3,4-oxadiazol-2-ylthio)-1-(pyrrolidin-1-yl)ethanone]",CC10 (A549),[1],32.6 µM
COc1cc2c(O)c3c(c(-c4ccc5c(c4)OCO5)c2cc1OC)C(=O)OC3 [Compound C2],entry of VSV,[5],inhibited
same,entry of the retrovirus MLV,[6],unaffected
same,CC50,[7],131 µM
same,viral entry of influenza virus,[8],inhibited
"Cc1[nH]c2ccc(-c3nnc(SCC(=O)N4CCc5ccccc54)o3)cc2c1C [Compound A3-3, 2-(5-(2,3-dimethyl-1H-indol-5-yl)-1,3,4-oxadiazol-2-ylthio)-1-(indolin-1-yl)ethanone]",CC50,[7]; [26],65 µM
same,CC10 (A549),[1],8.5 µM
Cc1[nH]c2ccc(-c3nnc(SCC(=O)N4CCCC4)o3)cc2c1C [Compound A3],sensitivity of adenovirus,[9],sensitive
same,CC50,[10],> 100 µM
same,"production of all three viral RNA species (v-, c-, and mRNA)",[11],fully inhibit
same,inhibition of hepatitis C virus,[12],2 logs
same,inhibition of influenza virus polymerase function,"[4]; compared with the DMSO control, A3 at its CC10",98%
same,inhibition of viral RNA polymerase activity,[4]; at 10 μM,up to 99%
same,potency relative to ribavirin,[4]; same degree of inhibition by 2 μM A3 as with 100 μM ribavirin,50 times
same,CC50 at 24 h,[13],268 µM
same,CC10 (A549),[1],38 µM
same,inhibition of Sindbis virus,[14],2 logs
same,titer of vesicular stomatitis virus decreased,[15]; 10 μM A3 or less,5 logs
same,inhibition of Sendai virus (SV52),[16],3 logs
same,sensitivity of HIV-1,[17]; 10 μM A3 or less,sensitive
same,IC50,"[17]; Human immunodeficiency virus 1, NL43, TZM-bl, 48 h, read-out: IC50 against HIV-1 (NL4-3)",0.205 µM
same,time of addition at which compound remains active,"[17]; time-of-addition, TZM-bl, HIV-1 MOI=0.1, A3 at 1 μM",≤ 12 h after infection
same,luminescence signal of influenza virus inducible firefly luciferase reporter,[18],no luminescence detectable
same,inhibition of viral replication,[3],strong inhibition; also recorded: complete inhibition
same,inhibition of viral replication,"[3]; baby hamster kidney (BHK) cells and pig kidney (PK-15) cells, A3 10 μM",partially inhibited
same,effect of orotic acid on the inhibition by A3,[3]; both A549 and MDCK cells,reverse the inhibition
same,effect on viral replication,"[3]; chicken fibroblast (DF-1) cells, A3 10 μM",no effect
same,viral entry of influenza virus,[8],did not inhibit viral entry
same,levels of viral proteins,[19],reduced levels of viral proteins
same,sensitivity of vaccinia virus,[20],sensitive
same,cellular gene expression as monitored by Renilla luciferase activity,[21]; A3 at its CC10,without affecting cellular gene expression
same,overall host cell replication machinery (renilla luciferase control plasmid expression),[21]; all A3 concentrations (0.4-30 μM),not affected
same,DHODH activity in vitro,[22],Inhibits DHODH Activity
same,levels of cellular 5S rRNA,[23],without decreasing levels
same,CC50,[24],> 100 µM
CN(c1nc(-c2ccc(Br)cc2)cs1)C1CCS(=O)(=O)C1 (stereo not shown) [Compound A35],CC50 at 24 h,[2],110 µM
same,CC10 (A549),[1],11.2 µM
same,inhibition of VSV,[15]; concentration of 11.2 μM,less significant inhibition
same,viral entry of influenza virus,[8],did not affect the entry step
same,inhibition of NDV,[25],less significant inhibition
"CCN(CC)S(=O)(=O)c1ccc(-c2nnc(SCC(=O)N3CCCC3)o2)cc1 [Compound A3-1, N,N-diethyl-4-(5-(2-oxo-2-(pyrrolidin-1-yl)ethylthio)-1,3,4-oxadiazol-2-yl)benzenesulfonamide]",CC10 (A549),[1],17.3 µM
"Cc1[nH]c2ccc(-c3nnc(SCC(=O)N4CCCCCC4)o3)cc2c1C [Compound A3-6, 1-(azepan-1-yl)-2-(5-(2,3-dimethyl-1H-indol-5-yl)-1,3,4-oxadiazol-2-ylthio)ethanone]",CC10 (A549),[1],18.2 µM
CN(c1nc(-c2ccccc2)cs1)C1CCS(=O)(=O)C1 (stereo not shown) [Compound A35-2],CC10 (A549),[1],12.2 µM
"Cc1[nH]c2ccc(-c3nnc(SCC(=O)N4CCOCC4)o3)cc2c1C [Compound A3-5, 2-(5-(2,3-dimethyl-1H-indol-5-yl)-1,3,4-oxadiazol-2-ylthio)-1-morpholinoethanone]",CC10 (A549),[1],10.2 µM
"COc1ccc(-c2nnc(SCC(=O)N3CCCC3)o2)cc1 [Compound A3-8, 2-(5-(4-methoxyphenyl)-1,3,4-oxadiazol-2-ylthio)-1-(pyrrolidin-1-yl)ethanone]",CC10 (A549),[1],11.8 µM
CN(c1ccc(O)cc1)c1nc(-c2ccc(Cl)cc2)cs1 [Compound A35-4],CC50,[7]; [26],30 µM
same,CC10 (A549),[1],6 µM
Nc1nc(-c2ccc(Cl)cc2)cs1 [Compound A35-3],CC10 (A549),[1],11.4 µM
CN(Cc1ccccc1)c1nc(-c2ccc([N+](=O)[O-])cc2)cs1 [Compound A35-1],CC10 (A549),[1],10.8 µM
"O=C(CSc1nnc(-c2cc3ccccc3o2)o1)N1CCCC1 [Compound A3-9, 2-(5-(benzofuran-2-yl)-1,3,4-oxadiazol-2-ylthio)-1-(pyrrolidin-1-yl)ethanone]",CC10 (A549),[1],10.9 µM
"O=C(CSc1nnc(-c2ccncc2)o1)N1CCCC1 [Compound A3-12, 2-(5-(pyridin-4-yl)-1,3,4-oxadiazol-2-ylthio)-1-(pyrrolidin-1-yl)ethanone]",CC10 (A549),[1],11.5 µM
"O=C(CSc1nnc(-c2cc3ccccc3[nH]2)o1)N1CCCC1 [Compound A3-7, 2-(5-(1H-indol-2-yl)-1,3,4-oxadiazol-2-ylthio)-1-(pyrrolidin-1-yl)ethanone]",CC10 (A549),[1],15.2 µM
